Laboratory results: ChEMBL document CHEMBL3244052, “Conformational analogues of dopamine. Synthesis and pharmacological activity of (E)- and (Z)-2-(3,4-dihydroxyphenyl)cyclopropylamine hydrochlorides” (J Med Chem, 1979)
Active and inactive are the calls of the source. The rule behind the calls is not given here.

How the values were obtained:
[1] = system: Canis familiaris; assay: Dopaminergic activity in mongrel dog assessed as renal vasodilation up to 4.96 x 10^-6 M administered to renal artery; format: functional, organism-based; conditions: Canis lupus familiaris
[2] = system: Canis familiaris; assay: Cardiac stimulant activity in iv dosed dog assessed as dose producing 50% increase in contractile force; format: functional, Canis lupus familiaris
[3] = Agonist activity at alpha-adrenergic receptor in rabbit thoracic aorta assessed as […] contraction; format: tissue-based, Oryctolagus cuniculus
[4] = system: Canis familiaris; assay: Cardiac stimulant activity in iv dosed dog assessed as increase in heart rate; format: functional, Canis lupus familiaris

With `Cl.N[C@@H]1C[C@H]1c1ccc(O)c(O)c1` (racemic) the ED50 [1] was “inactive”, the Activity [2] was 19.5 ×10⁻⁸ mol/kg and the EC50 [3] was 94 ×10⁻⁷ mol. It also gave an Activity [4] of -2 bpm.
For `Cl.N[C@@H]1C[C@@H]1c1ccc(O)c(O)c1` (racemic), the ED50 [1] was “inactive”, the Activity [2] was 312.3 ×10⁻⁸ mol/kg and the EC50 [3] was 457 ×10⁻⁷ mol. It also gave an Activity [4] of 32 bpm.
Work on `Cl.NCCc1ccc(O)c(O)c1` [DOPAMINE HYDROCHLORIDE] yielded an Activity [2] of 4.8 ×10⁻⁸ mol/kg, an EC50 [3] of 102 ×10⁻⁷ mol and an Activity [4] of 5 bpm.
`CC(C)NCC(O)c1ccc(O)c(O)c1.Cl` (centres undefined) [ISOPROTERENOL HYDROCHLORIDE] gave an Activity [2] of 0.014 ×10⁻⁸ mol/kg and an Activity [4] of 16 bpm.
Compound `CNC[C@H](O)c1cccc(O)c1.Cl` [PHENYLEPHRINE HYDROCHLORIDE] has an EC50 [3] of 2.3 ×10⁻⁷ mol.
